Data reported in patent US11167015B2, “Arginine and its use as a T cell modulator” (INSTITUTE FOR RESEARCH IN BIOMEDICINE, priority 2016, dated 2021).

Assays:
human naïve CD4+ T cells [1] = test: kinetic metabolome analysis of activated T cells; format: cell-based; conditions: L-arginine in medium increased 4-fold (1 mM standard), all time points
Experimental: (A) Human naïve CD4^+ T cells were activated in normal medium or in L-Arg medium. Nitric oxide formation was measured using DAF-FM diacetate at different time points.
Naïve CD4^+ T cells were either analyzed directly after isolation or at different time points after activation with CD3 and CD28 antibodies. Cells were washed twice in 96-well plates with 75 mM ammonium carbonate at pH 7.4 and snap frozen in liquid nitrogen. Metabolites were extracted three times with hot (>70° C.) 70% ethanol. Extracts were analyzed by flow injection—time of flight mass spectrometry on an Agilent 6550 QTOF instrument operated in the negative mode, as described previously (Fuhrer et al., 2011). Typically 5,000-12,000 ions with distinct mass-to-charge (m/z) ratio could be identified in each batch of samples. Ions were putatively annotated by matching their measured mass to that of the compounds listed by the KEGG database for Homo sapiens, allowing a tolerance of 0.001 Da. Only deprotonated ions (without adducts) were considered in the analysis. In case of multiple matching, such as in the case of structural isomers, all candidates were retained.

human naïve CD4+ T cells [2] = test: proteome analysis of T cells activated in L-arginine-supplemented medium; format: cell-based
Experimental: Samples were processed as described by (Hornburg et al., 2014). In brief, cell pellets were washed with PBS and lysed in 4% SDS, 10 mM HEPES (pH 8), 10 mM DTT. Cell pellets were heat-treated at 95° C. for 10 min and sonicated at 4° C. for 15 min (level 5, Bioruptor, Diagenode). Alkylation was performed in the dark for 30 min by adding 55 mM iodoacetamide (IAA). Proteins were precipitated overnight with acetone at −20° C. and resuspended the next day in 8 M Urea, 10 mM Hepes (pH 8). A two-step proteolytic digestion was performed. First, samples were digested at room temperature (RT) with LysC (1:50, w/w) for 3 h. Then, they were diluted 1:5 with 50 mM ammoniumbicarbonate (pH 8) and digested with trypsin (1:50, w/w) at RT overnight. The resulting peptide mixtures were acidified and loaded on C18 StageTips (Rappsilber et al., 2007). […]
Peptides were separated on an EASY-nLC 1000 HPLC system (Thermo Fisher Scientific, Odense, Denmark) coupled online to a Q Exactive mass spectrometer via a nanoelectrospray source (Thermo Fisher Scientific) (Michalski et al., 2011). […] Operational parameters were real-time monitored by the SprayQC software (Scheltema and Mann, 2012). […]
MaxQuant software (version 1.3.10.18) was used to analyze MS raw files (Cox and Mann, 2008). […] Nonlinear retention time alignment of all measured samples was performed in MaxQuant. […]

72 h-activated T cells = test: Glucose consumption assay; format: cell-based, human; conditions: L-arginine supplementation, 24 h in fresh medium
Experimental: FIG. 3. L-arginine globally influences metabolism of activated human T cells. […] Shown are only metabolites with a Log 2 fc>1 and an adjusted p value of <0.05; n=12 from two donors. Log 2 fold change between 0 and >+2 for L-Orn and L-Arg exemplarily indicated as “high”. (B) Differential analysis of the glycolytic pathway between naïve CD4^+ T cells cultured in L-Arg medium or Ctrl medium, 96 h after activation. Log 2 fold changes of proteins and metabolites are color-coded. […] 3-P-Glycerate and 2-P-Glycerate could not be distinguished as they have the same mass. (C) 72 h-activated T cells were plated in fresh medium and glucose consumption was determined enzymatically after 24 h; n=9 from three donors. (D) Seahorse experiment performed with activated (96 h) T cells from one donor. Oligomycin was injected after 56 min, FCCP after 96 min, and antimycin (to inhibit the respiratory chain) after 136 min. Data are representative of 5 independent experiments with different donors. (E,F) Relative oxygen consumption rate (OCR) (E) and relative spare respiratory capacity (SRC) (F) of activated (96 h) T cells; n=12 from three donors. ****p<0.0001 (Student's t-test).
The amount of glucose in media was determined using the Glucose (GO) Assay Kit from Sigma. Consumption was calculated as the difference between glucose content in reference medium (co-incubated medium without cells) and cell supernatants.

mTOR = test: Analysis of phosphorylation levels of 4E-BP and S6K1; format: cell-based, human; conditions: 3 mM L-arginine supplementation, 4 days activated
Experimental: Naïve CD4^+ T cells were activated with plate-bound antibodies to CD3 and CD28. Four days after activation, cells were lysed and analyzed by Western blot with the following antibodies obtained from Cell Signaling Technology. Phospho-p70 S6K(Thr389) #9205; p70 S6 Kinase #9202; Phospho-4E-BP1 (Thr37/46) #2855; 4E-BP1 #9644. Rapamycin (Sigma) was used at 100 nM.

B16.OVA melanoma = test: Tumor experiment: in vitro activation of T cells; format: in vivo, C57BL/6 mice; conditions: L-arginine-treated OT-I T cells transferred into B16 OVA tumor bearing mice
Experimental: B16-OVA melanoma cells were cultured in RPMI 1640 plus 10% FCS, 1% penicillin/streptomycin and 2 mM glutamine. Before injection into mice, cells were trypsinized and washed twice in PBS. Then, 5×10^5 cells were subcutaneously injected in the dorsal region of Wt C57BL/6 mice. Ten days post injection, 5×10^6 OT-I cells, that have been activated in vitro as described above, were injected into the tail vein of tumor-bearing mice. The size of tumors was measured in a blinded fashion using calipers.

N=C(N)NCCC[C@H](N)C(=O)O [L-arginine]
Intracellular arginine levels compared to controls (human naïve CD4+ T cells [1]): 1.5-2.5 fold
Intracellular ornithine levels compared to controls (human naïve CD4+ T cells [1]): 1.5-2.5 fold
Sirtuin-1 copy numbers (human naïve CD4+ T cells [2]; L-Arg-medium vs normal medium): up-regulates
number of proteins with significantly different expression (out of 7,243) (human naïve CD4+ T cells [2]; L-arginine-supplemented medium): 202
glucose consumption (72 h-activated T cells): consumed less glucose
phosphorylation levels of two targets of mTOR (p70 S6K1 and 4E-BP) (mTOR): did not change
anti-tumor response: survival of mice (B16.OVA melanoma): increased survival of mice
anti-tumor response: tumor size (B16.OVA melanoma): reduction of tumor size
